Data reported in ChEMBL document CHEMBL3632462, “Synthesis and evaluation of phenoxymethylbenzamide analogues as anti-trypanosomal agents” (Medchemcomm, 2015).

How the values were obtained:
Leishmania donovani = assay: Antiparasitic activity against amastigote form of Leishmania donovani MHOM/ET/67/L82 assessed as growth inhibition after 70 hrs by resazurin dye-based fluorometric analysis; type: functional, organism-based; details: MHOM/ET/67/L82, 70 h
[1] = system: Trypanosoma brucei brucei; assay: Antitrypanosomal activity against Trypanosoma brucei brucei infected in HEK293 cells assessed as growth inhibition after 72 hrs by Alamar Blue assay; type: functional, organism-based; details: HEK293, 72 h
Trypanosoma cruzi = assay: Antitrypanosomal activity against […] of Trypanosoma cruzi Tulahuen C2C4 infected in rat L6 cells assessed as growth inhibition after 96 hrs by beta-galactosidase reporter gene assay; type: functional, organism-based; details: Tulahuen C2C4, L6, 96 h
Plasmodium falciparum = assay: Antiparasitic activity against erythrocytic stage of Plasmodium falciparum NF54 assessed as growth inhibition after 48 hrs by [3H]-hypoxanthine incorporation assay; type: functional, organism-based
L6 = assay: Cytotoxicity against rat L6 cells after 70 hrs by resazurin dye-based fluorometric analysis; type: cell-based; details: L6, 70 h
[2] = Selectivity index, ratio of IC50 for rat L6 cells to IC50 for bloodstream form of Trypanosoma brucei rhodesiense STIB900; type: toxicity, cell-based; details: read-out: Ratio IC50
[3] = system: Trypanosoma brucei rhodesiense; assay: Antitrypanosomal activity against bloodstream form of Trypanosoma brucei rhodesiense STIB900 assessed as growth inhibition after 70 hrs by resazurin dye-based fluorometric analysis; type: functional, organism-based; details: STIB900, 70 h
[4] = Selectivity index, ratio of IC50 for HEK293 cells to IC50 for Trypanosoma brucei brucei infected in HEK293 cells; type: toxicity, cell-based; details: human, read-out: Ratio IC50

Row | IC50 [1] [µM] | Compound | selectivity ratio [4] | also measured
1 | 1.15 | CCOc1ccc(OCc2ccc(C(=O)N3CCCC(C)C3)cc2)cc1 (stereo not given) | 36 | IC50 (Leishmania donovani): 35.7 µM; IC50 (Trypanosoma cruzi): 107 µM; IC50 (Plasmodium falciparum): 22.3 µM; IC50 (L6): 186 µM; selectivity ratio [2]: 190; IC50 [3]: 0.985 µM
2 | 4.2 | CCOc1ccc(OCc2ccc(C(=O)N3CCOCC3)cc2)cc1 | 20 | –
3 | > 50 | CCOc1ccc(OCc2ccc(C(=O)O)cc2)cc1 | – | –
4 | > 50 | CCCc1ccc(OCc2ccc(C(=O)N3CCCC(C)C3)cc2)cc1 (stereo not given) | – | –
5 | 9.2 | Cc1ccc(OCc2ccc(C(=O)N3CCCCC3C)cc2)cc1 (stereo not given) | 9 | –
6 | 10 | CCCc1ccc(OCc2ccc(C(=O)N3CCCCC3C)cc2)cc1 (stereo not given) | 8 | –
7 | > 50 | Cc1ccc(OCc2ccc(C(=O)N3CCC(C)CC3)cc2)cc1 | – | –
8 | > 50 | CCc1ccc(OCc2ccc(C(=O)N3CCC(C)CC3)cc2)cc1 | – | –
9 | > 50 | COc1ccc(OCc2ccc(C(=O)N3CCC(C)CC3)cc2)cc1 | – | –
10 | > 50 | CCOc1ccc(OCc2ccc(C(=O)N3CCC(C)CC3)cc2)cc1 | – | –
11 | 2.9 | CCOc1ccc(NCc2ccc(C(=O)N3CCCCC3)cc2)cc1 | 29 | –
12 | 14.8 | CCc1ccc(OCc2ccc(C(=O)N3CCOCC3)cc2)cc1 | 6 | –
13 | 20.6 | CCOc1ccc(NCc2ccc(C(=O)N3CCOCC3)cc2)cc1 | 4 | –
14 | > 50 | CCc1ccc(OCc2ccc(C(=O)N3CCN(C)CC3)cc2)cc1 | – | –
15 | > 50 | COc1ccc(OCc2ccc(C(=O)N3CCN(C)CC3)cc2)cc1 | – | –
16 | > 50 | CCOc1ccc(OCc2ccc(C(=O)N3CCN(C)CC3)cc2)cc1 | – | –
17 | 18 | COc1ccc(OCc2ccc(C(=O)N(C)c3ccccc3)cc2)cc1 | 5 | –
18 | > 50 | CCOc1ccc(OCc2ccc(C(=O)NC(C)C)cc2)cc1 | – | –
19 | 7.35 | CCOc1ccc(OCCCCCC(=O)N2CCCCC2)cc1 | 5 | –
20 | 1.66 | CCOc1ccc(OCCCCCC(=O)N2CCCCC2C)cc1 (stereo not given) | 50 | –
21 | 2.03 | CCOc1ccc(OCCCCCC(=O)N(C(C)C)C(C)C)cc1 | 41 | –
22 | – | O=C(Cn1ccnc1[N+](=O)[O-])NCc1ccccc1 [BENZNIDAZOLE] | – | IC50 (Trypanosoma cruzi): 2.33 µM
23 | – | CCCCCCCCCCCCCCCCOP(=O)([O-])OCC[N+](C)(C)C [MILTEFOSINE] | – | IC50 (Leishmania donovani): 0.572 µM
